# In PubChem BioAssay (NCI):
#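 Method: 48-hour compound exposure of cells in 96-well plates, five concentrations, linear interpolation of endpoints. GI50 marks 50% less growth. TGI marks complete inhibition of growth.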
# Assays:
# Assay in all cases: NCI tumour cell line growth inhibition, 48 h
# 786-0 renal = test system: 786-0 renal
# A498 renal = test system: A498 renal
# A549 NSCLC = test system: A549 NSCLC
# ACHN renal = test system: ACHN renal
# CAKI-1 renal = test system: CAKI-1 renal
# CCRF-CEM leukemia = test system: CCRF-CEM leukemia
# COLO 205 colon = test system: COLO 205 colon
# DU-145 prostate = test system: DU-145 prostate
# HCC-2998 colon = test system: HCC-2998 colon
# HCT-116 colon = test system: HCT-116 colon
# HCT-15 colon = test system: HCT-15 colon
# HOP-62 NSCLC = test system: HOP-62 NSCLC
# HOP-92 NSCLC = test system: HOP-92 NSCLC
# HS 578T breast = test system: HS 578T breast
# IGROV1 ovarian = test system: IGROV1 ovarian
# K-562 leukemia = test system: K-562 leukemia
# KM12 colon = test system: KM12 colon
# LOX IMVI melanoma = test system: LOX IMVI melanoma
# M14 melanoma = test system: M14 melanoma
# MALME-3M melanoma = test system: MALME-3M melanoma
# MCF7 breast = test system: MCF7 breast
# MDA-MB-435 = test system: MDA-MB-435
# MOLT-4 leukemia = test system: MOLT-4 leukemia
# NCI-H226 lung = test system: NCI-H226 lung
# NCI-H23 lung = test system: NCI-H23 lung
# NCI-H460 lung = test system: NCI-H460 lung
# NCI-H522 lung = test system: NCI-H522 lung
# NCI/ADR-RES ovarian = test system: NCI/ADR-RES ovarian
# OVCAR-3 ovarian = test system: OVCAR-3 ovarian
# OVCAR-4 ovarian = test system: OVCAR-4 ovarian
# OVCAR-5 ovarian = test system: OVCAR-5 ovarian
# OVCAR-8 ovarian = test system: OVCAR-8 ovarian
# PC-3 prostate = test system: PC-3 prostate
# RPMI-8226 leukemia = test system: RPMI-8226 leukemia
# RXF 393 renal = test system: RXF 393 renal
# SF-268 CNS = test system: SF-268 CNS
# SF-295 CNS = test system: SF-295 CNS
# SK-MEL-2 melanoma = test system: SK-MEL-2 melanoma
# SK-MEL-28 melanoma = test system: SK-MEL-28 melanoma
# SK-MEL-5 melanoma = test system: SK-MEL-5 melanoma
# SK-OV-3 ovarian = test system: SK-OV-3 ovarian
# SN12C renal = test system: SN12C renal
# SNB-19 CNS = test system: SNB-19 CNS
# SR leukemia = test system: SR leukemia
# T-47D breast = test system: T-47D breast
# TK-10 renal = test system: TK-10 renal
# U251 CNS = test system: U251 CNS
# UACC-62 melanoma = test system: UACC-62 melanoma
# UO-31 renal = test system: UO-31 renal
# EKVX NSCLC = test system: EKVX NSCLC
# HT29 colon = test system: HT29 colon
# MDA-MB-231 breast = test system: MDA-MB-231 breast
# SF-539 CNS = test system: SF-539 CNS
# SNB-75 CNS = test system: SNB-75 CNS
# SW-620 colon = test system: SW-620 colon
# UACC-257 melanoma = test system: UACC-257 melanoma
smiles,measurement,setting,value
CC(C)CNc1nc(-c2ccccc2Cl)nc2ccccc12,GI50,786-0 renal,16.8 µM
same,TGI,786-0 renal,30.4 µM
same,GI50,A498 renal,18.5 µM
same,TGI,A498 renal,32.6 µM
same,GI50,A549 NSCLC,14.1 µM
same,TGI,A549 NSCLC,33.5 µM
same,GI50,ACHN renal,15.1 µM
same,TGI,ACHN renal,33.8 µM
same,GI50,CAKI-1 renal,15 µM
same,TGI,CAKI-1 renal,32.7 µM
same,GI50,CCRF-CEM leukemia,18.8 µM
same,TGI,CCRF-CEM leukemia,43.3 µM
same,GI50,COLO 205 colon,20.3 µM
same,TGI,COLO 205 colon,50 µM
same,GI50,DU-145 prostate,16.1 µM
same,TGI,DU-145 prostate,30.5 µM
same,GI50,HCC-2998 colon,19.8 µM
same,TGI,HCC-2998 colon,35.9 µM
same,GI50,HCT-116 colon,16.6 µM
same,TGI,HCT-116 colon,30.2 µM
same,GI50,HCT-15 colon,17.1 µM
same,TGI,HCT-15 colon,32.1 µM
same,GI50,HOP-62 NSCLC,15.8 µM
same,TGI,HOP-62 NSCLC,29.2 µM
same,GI50,HOP-92 NSCLC,15.6 µM
same,TGI,HOP-92 NSCLC,35.2 µM
same,GI50,HS 578T breast,18 µM
same,TGI,HS 578T breast,37.3 µM
same,GI50,IGROV1 ovarian,19.7 µM
same,TGI,IGROV1 ovarian,> 100 µM
same,GI50,K-562 leukemia,16.8 µM
same,TGI,K-562 leukemia,43.5 µM
same,GI50,KM12 colon,23.4 µM
same,TGI,KM12 colon,64.4 µM
same,GI50,LOX IMVI melanoma,14.5 µM
same,TGI,LOX IMVI melanoma,27.6 µM
same,GI50,M14 melanoma,19.5 µM
same,TGI,M14 melanoma,35.1 µM
same,GI50,MALME-3M melanoma,12.4 µM
same,TGI,MALME-3M melanoma,25.9 µM
same,GI50,MCF7 breast,22.6 µM
same,TGI,MCF7 breast,47.7 µM
same,GI50,MDA-MB-435,16.5 µM
same,TGI,MDA-MB-435,30.8 µM
same,GI50,MOLT-4 leukemia,17.9 µM
same,TGI,MOLT-4 leukemia,54.9 µM
same,GI50,NCI-H226 lung,17.7 µM
same,TGI,NCI-H226 lung,35 µM
same,GI50,NCI-H23 lung,16.2 µM
same,TGI,NCI-H23 lung,31 µM
same,GI50,NCI-H460 lung,18.3 µM
same,TGI,NCI-H460 lung,36.1 µM
same,GI50,NCI-H522 lung,25.5 µM
same,TGI,NCI-H522 lung,> 100 µM
same,GI50,NCI/ADR-RES ovarian,17.8 µM
same,TGI,NCI/ADR-RES ovarian,42.6 µM
same,GI50,OVCAR-3 ovarian,17 µM
same,TGI,OVCAR-3 ovarian,31.2 µM
same,GI50,OVCAR-4 ovarian,17.1 µM
same,TGI,OVCAR-4 ovarian,50.5 µM
same,GI50,OVCAR-5 ovarian,18.6 µM
same,TGI,OVCAR-5 ovarian,35.2 µM
same,GI50,OVCAR-8 ovarian,17.2 µM
same,TGI,OVCAR-8 ovarian,38.9 µM
same,GI50,PC-3 prostate,18.5 µM
same,TGI,PC-3 prostate,46.4 µM
same,GI50,RPMI-8226 leukemia,12.6 µM
same,TGI,RPMI-8226 leukemia,32.7 µM
same,GI50,RXF 393 renal,15.1 µM
same,TGI,RXF 393 renal,31.2 µM
same,GI50,SF-268 CNS,22.1 µM
same,TGI,SF-268 CNS,40.4 µM
same,GI50,SF-295 CNS,14.9 µM
same,TGI,SF-295 CNS,28.4 µM
same,GI50,SK-MEL-2 melanoma,23.5 µM
same,TGI,SK-MEL-2 melanoma,63.4 µM
same,GI50,SK-MEL-28 melanoma,20.8 µM
same,TGI,SK-MEL-28 melanoma,40.7 µM
same,GI50,SK-MEL-5 melanoma,16.2 µM
same,TGI,SK-MEL-5 melanoma,29.8 µM
same,GI50,SK-OV-3 ovarian,21.3 µM
same,TGI,SK-OV-3 ovarian,50.1 µM
same,GI50,SN12C renal,16.5 µM
same,TGI,SN12C renal,30.6 µM
same,GI50,SNB-19 CNS,24.8 µM
same,TGI,SNB-19 CNS,58.5 µM
same,GI50,SR leukemia,19.7 µM
same,TGI,SR leukemia,44.9 µM
same,GI50,T-47D breast,35.2 µM
same,TGI,T-47D breast,> 100 µM
same,GI50,TK-10 renal,15.8 µM
same,TGI,TK-10 renal,29.6 µM
same,GI50,U251 CNS,16.9 µM
same,TGI,U251 CNS,30.5 µM
same,GI50,UACC-62 melanoma,14.3 µM
same,TGI,UACC-62 melanoma,27.4 µM
same,GI50,UO-31 renal,17.1 µM
same,TGI,UO-31 renal,49.2 µM
CCCCCCNCCc1cnc[nH]1,TGI,786-0 renal,> 100 µM
same,TGI,A498 renal,> 100 µM
same,TGI,A549 NSCLC,> 100 µM
same,TGI,ACHN renal,> 100 µM
same,TGI,CAKI-1 renal,> 100 µM
same,TGI,CCRF-CEM leukemia,> 100 µM
same,TGI,COLO 205 colon,> 100 µM
same,TGI,DU-145 prostate,> 100 µM
same,TGI,EKVX NSCLC,> 100 µM
same,TGI,HCC-2998 colon,> 100 µM
same,TGI,HCT-116 colon,> 100 µM
same,TGI,HCT-15 colon,> 100 µM
same,TGI,HOP-62 NSCLC,> 100 µM
same,TGI,HOP-92 NSCLC,> 100 µM
same,TGI,HS 578T breast,> 100 µM
same,TGI,HT29 colon,> 100 µM
same,TGI,IGROV1 ovarian,> 100 µM
same,TGI,K-562 leukemia,> 100 µM
same,TGI,KM12 colon,> 100 µM
same,TGI,LOX IMVI melanoma,> 100 µM
same,TGI,M14 melanoma,> 100 µM
same,TGI,MALME-3M melanoma,> 100 µM
same,TGI,MCF7 breast,> 100 µM
same,TGI,MDA-MB-231 breast,> 100 µM
same,TGI,MDA-MB-435,> 100 µM
same,TGI,MOLT-4 leukemia,> 100 µM
same,TGI,NCI-H226 lung,> 100 µM
same,TGI,NCI-H23 lung,> 100 µM
same,TGI,NCI-H460 lung,> 100 µM
same,TGI,NCI-H522 lung,> 100 µM
same,TGI,NCI/ADR-RES ovarian,> 100 µM
same,TGI,OVCAR-3 ovarian,> 100 µM
same,TGI,OVCAR-4 ovarian,> 100 µM
same,TGI,OVCAR-5 ovarian,> 100 µM
same,TGI,OVCAR-8 ovarian,> 100 µM
same,TGI,PC-3 prostate,> 100 µM
same,TGI,RPMI-8226 leukemia,> 100 µM
same,TGI,RXF 393 renal,> 100 µM
same,TGI,SF-268 CNS,> 100 µM
same,TGI,SF-295 CNS,> 100 µM
same,TGI,SF-539 CNS,> 100 µM
same,TGI,SK-MEL-2 melanoma,> 100 µM
same,TGI,SK-MEL-28 melanoma,> 100 µM
same,TGI,SK-MEL-5 melanoma,> 100 µM
same,TGI,SK-OV-3 ovarian,> 100 µM
same,TGI,SN12C renal,> 100 µM
same,TGI,SNB-19 CNS,> 100 µM
same,TGI,SNB-75 CNS,> 100 µM
same,TGI,SR leukemia,> 100 µM
same,TGI,SW-620 colon,> 100 µM
same,TGI,T-47D breast,> 100 µM
same,TGI,U251 CNS,> 100 µM
same,TGI,UACC-257 melanoma,> 100 µM
same,TGI,UACC-62 melanoma,> 100 µM
same,TGI,UO-31 renal,> 100 µM
